# Experimental data from patent publication US5196410A, “Transdermal flux enhancing compositions” (priority 1991, dated 1993).
# Read-outs that look alike come from different tables or passages of the source.
# Key:
# physchem = details: […] oleic acid, organic solvent or mixture
# [1] = assay type: in vitro ADME, porcine
# Method: Samples were removed periodically from the receiver side of the diffusion cell, mixed with a Z0 scintillation cocktail (Scintisol, Isolabs, Inc., Akron, OH) and counted for several minutes in a liquid scintillation counter (Model Mark III-6881, Tracor Analytical, Elk Grove Village, IL). Following an initial lag time of about 6 hours, the amount of
# salicylic acid appearing in the receiver side was linear with time for the duration of the experiment (routinely 24 to 48 hours). […] This value, when divided by the specific acitivity of salicyclic acid in the saturated solution (approximately 300 dpm/mg) and the area of exposed skin (0.2 cm^2), yielded the flux (mg/cm^2/ hr). Samples removed from the donor side at the beginning and end of the experiment contained, within error, the same amount of salicylic acid. Thus, constant concentration of the permeant was maintained on the donor side throughout the experiment.
# [2] = Differential scanning calorimetry of fatty acid treated porcine stratum corneum; details: stratum corneum treated with […] fatty acid in ethanol, 30% (w/w) water
# Method: (§1) Stratum corneum sheets were prepared from porcine skin by trypsin treatment. Thus, full thickness porcine skin samples were dermatomed to 350 μm thickness and spread, stratum corneum side up, on filter paper saturated with 0.5% crude trypsin in phosphate buffered saline at pH 7.4 (Sorensen's buffer). After several hours at 37° C. the stratum corneum was peeled away, washed in soybean trypsin inhibitor, water and air dried. Samples were stored desiccated at room temperature until used. Prior to use, dry skin samples of known weight were incubated for two hours in an 0.15M solution of the appropriate fatty acid in ethanol, the samples were then washed for ten seconds in ethanol, spread on wire mesh, dried over a desiccant and the dry sample reweighed. The stratum corneum samples were then held for several days in a chamber at 22° C., 95% relative humidity, during which the stratum corneum samples equilibrated to a water content of 30% (w/w).
# (§2) The differential scanning calorimeter^5 was used at a scan rate of 0.75° C./minute. Duplicate samples from each of the above FTIR experiments were combined for DSC measurements. Alternately, stratum corneum samples of known weight (about 20 mg) were treated with each fatty acid in the same manner described above. Treated samples were hydrated for several days at 95% R.H., 22° C. and reweighed.
# [3] = Infrared spectra of fatty acid treated porcine stratum corneum; details: C-H antisymmetric stretching; stratum corneum treated with […] fatty acid in ethanol, 30% (w/w) water
# Method: as §1
# Infrared spectra were obtained with a Fourier Transform Infrared Spectrometer^4 (FTIR) equipped with a liquid nitrogen cooled mercury-cadmium telluride detector. In order to prevent water loss, hydrated samples were sealed between zinc sulfide windows while maintained at 22° C., 95% relative humidity. Sealed samples were placed in the spectrometer where an average of 127 scans were obtained in about six minutes for each of the fatty acid treatments. The digitized data were transferred to a computer (Apple IIe) for determination of frequency and bandwidth of the C--H antisymmetric stretching absorbance. Due to the digital nature of the FTIR instrument, absorbance and frequency data exist only in discrete increments. With the instrument used, the exact value of any frequency point could only be determined with a precision not greater than 2.7 cm^-1. The peak frequency was estimated with much greater precision, however, using a center of gravity algorithm for digitized data reported by Cameron et al., Applied Spectr., 36 245-250 (1982).
# [4] = Method: The in vitro flux of piroxicam was measured from ethanol/buffer vehicles containing 0.25% v/v (0.224% w/v) cis-9-octadecenoic acid (oleic acid). The buffer employed was Sorensen's Buffer, pH 7.3-7.4^3, all experiments were carried out at 32° C. […] Buffer only was introduced into the chamber (receiver) in contact with the internal side of the skin. The donor chamber, in contact with the outer side of the skin was filled with the appropriate ethanol/buffer vehicle containing 0.25% v/v cis-9-octadecenoic acid (oleic acid) and an excess of piroxicam.
# [5] = Lipid transition temperature of porcine stratum corneum by DSC in vehicles containing oleic acid
# Method: as §1, with “dry skin samples of known weight were incubated for two hours in an 0.15M solution of the appropriate” left out
# as §2
# [6] = for Flux: SD in parentheses
smiles,measurement,setting,value
"CN1C(C(=O)Nc2ccccn2)=C(O)c2ccccc2S1(=O)=O [Piroxicam, 4-hydroxy-2-methyl-N-2-pyridinyl-2H-1,2-benzothiazine-3-carboxamide 1,1-dioxide]",solubility,physchem; 0/100 ethanol/buffer,40 µg/mL
same,solubility,physchem; 10/90 ethanol/buffer,190 µg/mL
same,solubility,physchem; 20/80 ethanol/buffer,460 µg/mL
same,solubility,physchem; 30/70 ethanol/buffer,710 µg/mL
same,solubility,physchem; 40/60 ethanol/buffer,1200 µg/mL
same,solubility,physchem; 50/50 ethanol/buffer,1500 µg/mL
same,solubility,physchem; 100/0 ethanol/buffer,1200 µg/mL
"CCCCCCCC/C=C/CCCCCCCC(=O)O [Elaidic, elaidic acid]",Flux of Salicylic Acid,[1],2.35 mg/cm^2 /hr
same,DSC Tm (temperature of the transition maximum),[2],61.5 °C
same,Peak IR Frequency,[3],2919.4 cm⁻¹
"CC(C)Cc1ccc(C(C)C(=O)O)cc1 (stereo not shown) [Ibuprofen, 2-(4-isobutylphenyl)propionic acid]",Relative Flux,"[4]; 0/100 v/v ethanol/buffer, […] v/v oleic acid (reference)",1.0
same,Relative Flux,"[4]; 20/80 v/v ethanol/buffer, […] v/v oleic acid, relative to 0/100 ethanol/buffer",1.5
same,Relative Flux,"[4]; 30/70 v/v ethanol/buffer, […] v/v oleic acid, relative to 0/100 ethanol/buffer",1.8
same,Relative Flux,"[4]; 40/60 v/v ethanol/buffer, […] v/v oleic acid, relative to 0/100 ethanol/buffer",3.5
same,Relative Flux,"[4]; 50/50 v/v ethanol/buffer, […] v/v oleic acid, relative to 0/100 ethanol/buffer",5
same,Relative Flux,"[4]; 60/40 v/v ethanol/buffer, […] v/v oleic acid, relative to 0/100 ethanol/buffer",4.5
same,Relative Flux,"[4]; 70/30 v/v ethanol/buffer, […] v/v oleic acid, relative to 0/100 ethanol/buffer",4.5
same,Relative Flux,"[4]; 100/0 v/v ethanol/buffer, […] v/v oleic acid, relative to 0/100 ethanol/buffer",4.5
"CCCCCC/C=C\CCCCCCCCCC(=O)O [cis-vaccenic, cis-11-octadecenoic acid]",flux of salicylic acid (in words),[1]; difference relative to the controls and trans-vaccenic acid,even greater
same,Flux of Salicylic Acid,"[1]; saturated salicylic acid in ethanol with […] of the fatty acid, 32° C.",5.53 mg/cm^2 /hr
same,DSC Tm (temperature of the transition maximum),[2],57.0 °C
"CCCCCCCC/C=C\CCCCCCCC(=O)O [Oleic Acid, cis-9-octadecenoic acid]",Flux of Salicylic Acid,[1],3.81 mg/cm^2 /hr
same,flux of salicylic acid (in words),[1],significantly greater
same,DSC Tm (temperature of the transition maximum),[2],59.0 ± 1.5 °C
same,"Lipid Transition Temperature, Tm","[5]; 0/100 PEG 200/0.1M Tris buffer (pH 6.8-7.3), […] v/v oleic acid",59 °C
same,"Lipid Transition Temperature, Tm","[5]; 0/100 ethanol/0.1M Tris buffer (pH 6.8-7.3), […] v/v oleic acid",58 °C
same,"Lipid Transition Temperature, Tm","[5]; 0/100 glycerin/0.1M Tris buffer (pH 6.8-7.3), […] v/v oleic acid",58 °C
same,"Lipid Transition Temperature, Tm","[5]; 0/100 v/v ethanol/Sorensen's buffer pH 7.3, […] v/v oleic acid",57.5 °C
same,"Lipid Transition Temperature, Tm","[5]; 20/40/40 ethanol/PG/0.1M Tris buffer (pH 6.8-7.3), […] v/v oleic acid",55 °C
same,"Lipid Transition Temperature, Tm","[5]; 20/80 PEG 200/0.1M Tris buffer (pH 6.8-7.3), […] v/v oleic acid",59 °C
same,"Lipid Transition Temperature, Tm","[5]; 20/80 ethanol/0.1M Tris buffer (pH 6.8-7.3), […] v/v oleic acid",59 °C
same,"Lipid Transition Temperature, Tm","[5]; 20/80 glycerin/0.1M Tris buffer (pH 6.8-7.3), […] v/v oleic acid",62.5 °C
same,"Lipid Transition Temperature, Tm","[5]; 20/80 v/v ethanol/Sorensen's buffer pH 7.3, […] v/v oleic acid",54.5 °C
same,"Lipid Transition Temperature, Tm","[5]; 30/70 v/v ethanol/Sorensen's buffer pH 7.3, […] v/v oleic acid",54.0 °C
same,"Lipid Transition Temperature, Tm","[5]; 33/33/34 ethanol/PG/0.1M Tris buffer (pH 6.8-7.3), […] v/v oleic acid",59 °C
same,"Lipid Transition Temperature, Tm","[5]; 34/66/0 ethanol/PG/0.1M Tris buffer (pH 6.8-7.3), […] v/v oleic acid",61 °C
same,"Lipid Transition Temperature, Tm","[5]; 40/20/40 ethanol/PG/0.1M Tris buffer (pH 6.8-7.3), […] v/v oleic acid",58.5 °C
same,"Lipid Transition Temperature, Tm","[5]; 40/40/20 ethanol/PG/0.1M Tris buffer (pH 6.8-7.3), […] v/v oleic acid",60 °C
same,"Lipid Transition Temperature, Tm","[5]; 40/60 PEG 200/0.1M Tris buffer (pH 6.8-7.3), […] v/v oleic acid",57.5 °C
same,"Lipid Transition Temperature, Tm","[5]; 40/60 ethanol/0.1M Tris buffer (pH 6.8-7.3), […] v/v oleic acid",55 °C
same,"Lipid Transition Temperature, Tm","[5]; 40/60 glycerin/0.1M Tris buffer (pH 6.8-7.3), […] v/v oleic acid",57 °C
same,"Lipid Transition Temperature, Tm","[5]; 40/60 v/v ethanol/Sorensen's buffer pH 7.3, […] v/v oleic acid",53.2 ± 0.6 °C
same,"Lipid Transition Temperature, Tm","[5]; 50/50 v/v ethanol/Sorensen's buffer pH 7.3, […] v/v oleic acid",55.1 °C
same,"Lipid Transition Temperature, Tm","[5]; 60/40 PEG 200/0.1M Tris buffer (pH 6.8-7.3), […] v/v oleic acid",57 °C
same,"Lipid Transition Temperature, Tm","[5]; 60/40 ethanol/0.1M Tris buffer (pH 6.8-7.3), […] v/v oleic acid",59 °C
same,"Lipid Transition Temperature, Tm","[5]; 60/40 glycerin/0.1M Tris buffer (pH 6.8-7.3), […] v/v oleic acid",54 °C
same,"Lipid Transition Temperature, Tm","[5]; 60/40 v/v ethanol/Sorensen's buffer pH 7.3, […] v/v oleic acid",53.4 °C
same,"Lipid Transition Temperature, Tm","[5]; 66/34/0 ethanol/PG/0.1M Tris buffer (pH 6.8-7.3), […] v/v oleic acid",60 °C
same,"Lipid Transition Temperature, Tm","[5]; 70/30 v/v ethanol/Sorensen's buffer pH 7.3, […] v/v oleic acid",58.8 °C
same,"Lipid Transition Temperature, Tm","[5]; 80/20 PEG 200/0.1M Tris buffer (pH 6.8-7.3), […] v/v oleic acid",61 °C
same,"Lipid Transition Temperature, Tm","[5]; 80/20 ethanol/0.1M Tris buffer (pH 6.8-7.3), […] v/v oleic acid",61 °C
same,"Lipid Transition Temperature, Tm","[5]; 80/20 glycerin/0.1M Tris buffer (pH 6.8-7.3), […] v/v oleic acid",59 °C
same,"Lipid Transition Temperature, Tm","[5]; 100/0 v/v ethanol/Sorensen's buffer pH 7.3, […] v/v oleic acid",66.4 °C
Cc1cnc(C(=O)NCCc2ccc(S(=O)(=O)NC(=O)NC3CCCCC3)cc2)cn1 [Glipizide],Flux,"[6]; 20% v/v ethanol, 0.5% v/v Azone, 6.8 mg/ml, pH 8.8",55.9 (38.8) mg/day/30 cm^2
same,Flux,"[6]; 20% v/v ethanol, no Azone, 6.7 mg/ml, pH 8.9",0.4 (0.04) mg/day/30 cm^2
same,Flux,"[6]; 30% v/v ethanol, 0.5% v/v Azone, 8.1 mg/ml, pH 8.8",101.4 (10.3) mg/day/30 cm^2
same,Flux,"[6]; 30% v/v ethanol, no Azone, 8.2 mg/ml, pH 8.9",0.6 (0.2) mg/day/30 cm^2
same,Flux,"[6]; 55% v/v ethanol, 0.5% v/v Azone, 17.5 mg/ml, pH 8.8",30.8 (6.5) mg/day/30 cm^2
same,Flux,"[6]; 55% v/v ethanol, no Azone, 17.9 mg/ml, pH 9.1",2.7 (0.5) mg/day/30 cm^2
same,in vitro transport,[6]; range over vehicles,30.8 to 101.4 mg/day/30 cm^2
NC(CO)(CO)CO [Tris],effect on oleic acid's action on stratum corneum lipids,[5]; concentration dependent,reduces the effect of oleic acid on stratum corneum lipids
